Assay results taken from patent US12202805B2, “Process for preparing (5S)-{[2-(4-carboxyphenyl)ethyl] |2-(2-{|3-chloro-4'-(trifluoromethyl)biphenyl-4-yl]methoxy}phenyl)ethyl]aminol-5,6,7,8-tetrahydroquinoline-2-carboxylic acid and its crystalline forms for use as pharmaceutically active compound” (Bayer Aktiengesellschaft, priority 2021, dated 2025).
Values joined by “and” are separate entries in the source; they are usually repeats but may differ in a detail not shown here. Identical values can stand only once.

Test system: thromboxane A2 challenged PAH-minipig
Assay: Haemodynamics in the anesthetized thromboxane challenged minipig, intratracheal dry powder (PAP, BP)
Assay type: in vivo, Göttingen Minipigs
Conditions: for BP (absolute values) / PAP (absolute values): lactose vehicle first, test powder 1.5 mg/4 kg i.t. @90 min, each animal (n=3); for % changes vs. baseline on PAP: each animal
Description: Healthy Göttingen Minipigs® Ellegaard (Ellegaard, Denmark) of both sexes and having a weight of 2-6 kg were used. The animals were sedated by i.m. administration of about 25 mg/kg ketamine and about 10 mg/kg azaperone. Anaesthesia was initiated by i.v. administration of about 2 mg/kg ketamine and about 0.3 mg/kg midazolam. Maintenance of anaesthesia was by i.v. administration of about 7.5-30 mg/kg/h ketamine and about 1-4 mg/kg/h midazolam (rate of infusion 1-4 ml/kg/h) and about 150 μg/kg/h pancuronium bromide (for example Pancuronium-Actavis). After intubation, the animals were ventilated by the ventilator at a constant respiratory volume (10-12 ml/kg, 35 breaths/min; Avea®, Viasys Healthcare, USA, or Engström Carestation, GE Healthcare, Freiburg, Germany) such that an end-tidal CO2 concentration of about 5% was achieved. Ventilation was performed with room air, enriched with about 40% oxygen (normoxia). For the measurement of the haemodynamic parameters such as pulmonary arterial pressure (PAP), blood pressure (BP) and heart rate (HR), catheters were inserted into the carotid artery to measure the blood pressure, and a Swan-Ganz® catheter was introduced in a flow-directed manner via the jugular vein into the pulmonary artery. The haemodynamic signals were recorded and evaluated by means of pressure transducers (Combitransducer, B. Braun, Melsungen, Germany)/amplifiers and Ponemah® as data acquisition software.
As reference pure Lactose vehicle was applied in the beginning of each experiment.

[1] = time 0 min, 375 μg/kg i.t., sesquihydrate
[2] = time 10 min, 375 μg/kg i.t., sesquihydrate
[3] = time 20 min, 375 μg/kg i.t., sesquihydrate
[4] = time 20 min, listed as ex. 6e, sesquihydrate
[5] = time 30 min, listed as ex. 6e, sesquihydrate
[6] = time 40 min, listed as ex. 6e, sesquihydrate
[7] = time 50 min, 375 μg/kg i.t., sesquihydrate
[8] = time 50 min, listed as ex. 6e, sesquihydrate
[9] = time 60 min, 375 μg/kg i.t., sesquihydrate
[10] = time 60 min, listed as ex. 6e, sesquihydrate
[11] = time 70 min, 375 μg/kg i.t., sesquihydrate
[12] = time 70 min, listed as ex. 6e, sesquihydrate
[13] = time 80 min, 375 μg/kg i.t., sesquihydrate
[14] = time 80 min, listed as ex. 6e, sesquihydrate
[15] = time 90 min, 375 μg/kg i.t., sesquihydrate
[16] = time 90 min, listed as ex. 6e, sesquihydrate
[17] = time 100 min, 375 μg/kg i.t., sesquihydrate
[18] = time 100 min, listed as ex. 6e, sesquihydrate
[19] = time 110 min, 375 μg/kg i.t., sesquihydrate
[20] = time 110 min, listed as ex. 6e, sesquihydrate
[21] = time 120 min, 375 μg/kg i.t., sesquihydrate
[22] = time 120 min, listed as ex. 6e, sesquihydrate
[23] = time 130 min, listed as ex. 6e, sesquihydrate
[24] = time 140 min, listed as ex. 6e, sesquihydrate

O.O.O.O=C(O)c1ccc(CCN(CCc2ccccc2OCc2ccc(-c3ccc(C(F)(F)F)cc3)cc2Cl)[C@H]2CCCc3nc(C(=O)O)ccc32)cc1.O=C(O)c1ccc(CCN(CCc2ccccc2OCc2ccc(-c3ccc(C(F)(F)F)cc3)cc2Cl)[C@H]2CCCc3nc(C(=O)O)ccc32)cc1 [example 6e, (5S)—{[2-(4-Carboxyphenyl)ethyl][2-(2-{[3-chloro-4′-(trifluoromethyl)biphenyl-4-yl]methoxy}phenyl)-ethyl]amino}-5,6,7,8-tetrahydroquinoline-2-carboxylic acid sesquihydrate]
systemic blood pressure (375 μg/kg i.t., within the last hour of the observation interval): slightly affected | maximal effect achievable in this animal model (i.t. dry powder): maximal effect | time to maximum effect after i.t. application (i.t. dry powder, 1.5 mg/4 kg animal weight): approximately 80 min | effect on PAP and BP (i.t. via PennCentury dry powder insufflator, 1.5 mg/4 kg animal weight): decrease of PAP without any effects on BP | efficacy with regard to PAP reduction as well as systemic BP reduction (micronized hydrates, 1.5 mg/4 kg (=375 μg/kg) i.t.): comparable efficacy | BP (mean) [1]: 99 mmHg and 104 mmHg and 117 mmHg | PAP(mean) [1]: 41.9 mmHg and 37.1 mmHg and 37.5 mmHg | BP (mean) (time 10 min, 375 μg/kg i.t.): 99 mmHg | BP (mean) [2]: 108 mmHg and 119 mmHg | PAP(mean) [2]: 42.0 mmHg and 37.3 mmHg and 38.6 mmHg | BP (mean) (time 20 min, 375 μg/kg i.t.): 99 mmHg | BP (mean) [3]: 109 mmHg and 118 mmHg | PAP(mean) [3]: 41.4 mmHg | BP (absolute values) (time 20 min): 99 mmHg | BP (absolute values) [4]: 107 mmHg and 119 mmHg | PAP (absolute values) [4]: 42.0 mmHg and 36.4 mmHg and 37.5 mmHg | BP (mean) (time 30 min, 375 μg/kg i.t.): 100 mmHg | BP (mean) (time 30 min, 375 μg/kg i.t., sesquihydrate): 107 mmHg and 118 mmHg | BP (absolute values) [5]: 99 mmHg and 104 mmHg and 117 mmHg | PAP (absolute values) [5]: 41.9 mmHg and 37.1 mmHg and 37.5 mmHg | BP (mean) (time 40 min, 375 μg/kg i.t.): 100 mmHg | BP (absolute values) (time 40 min): 99 mmHg | BP (absolute values) [6]: 108 mmHg and 119 mmHg | PAP (absolute values) [6]: 42.0 mmHg and 37.3 mmHg and 38.6 mmHg | BP, % changes vs. prevalues [7]: 101.4% and 98.5% and 100.3% | PAP, % changes vs. prevalues [7]: 98.3% and 96.2% and 101.2% | BP (absolute values) (time 50 min): 99 mmHg | BP (absolute values) [8]: 109 mmHg and 118 mmHg | PAP (absolute values) [8]: 41.4 mmHg and 37.4 mmHg and 39.8 mmHg | BP, % changes vs. prevalues [9]: 102.5% and 100.3% and 99.4% | PAP, % changes vs. prevalues [9]: 97.2% and 99.6% and 101.1% | BP (absolute values) (time 60 min): 100 mmHg | BP (absolute values) [10]: 107 mmHg and 118 mmHg | PAP (absolute values) [10]: 41.4 mmHg and 36.8 mmHg and 41.2 mmHg | BP, % changes vs. prevalues [11]: 99.4% and 96.0% and 98.6% | PAP, % changes vs. prevalues [11]: 97.8% and 97.5% and 98.5% | BP (absolute values) (time 70 min): 100 mmHg | BP (absolute values) [12]: 109 mmHg and 118 mmHg | PAP (absolute values) [12]: 41.0 mmHg and 37.4 mmHg and 41.3 mmHg | % changes vs. baseline on PAP (time 80 min (baseline = 100.0), i.t. dry powder): 100.0% | BP, % changes vs. prevalues [13]: 101.4% and 96.8% and 97.7% | PAP, % changes vs. prevalues [13]: 87.8% and 94.9% and 87.9% | BP (absolute values) [14]: 101 mmHg and 114 mmHg and 119 mmHg | PAP (absolute values) [14]: 40.9 mmHg and 38.1 mmHg and 40.8 mmHg | BP, % changes vs. prevalues [15]: 101.4% and 98.5% and 96.9% | PAP, % changes vs. prevalues [15]: 82.5% and 92.0% and 76.6% | % changes vs. baseline on PAP (time 90 min, baseline 100.0 at 80 min, i.t. dry powder, sesquihydrate): 98.9% and 103.6% and 99.8% | BP (absolute values) (time 90 min): 102 mmHg | BP (absolute values) [16]: 116 mmHg and 118 mmHg | PAP (absolute values) [16]: 40.4 mmHg and 39.5 mmHg and 40.7 mmHg | BP, % changes vs. prevalues [17]: 101.4% and 98.5% and 96.9% | PAP, % changes vs. prevalues [17]: 77.6% and 90.1% and 71.1% | % changes vs. baseline on PAP (time 100 min, baseline 100.0 at 80 min, i.t. dry powder, sesquihydrate): 99.5% and 101.4% and 97.3% | BP (absolute values) (time 100 min): 99 mmHg | BP (absolute values) [18]: 111 mmHg and 117 mmHg | PAP (absolute values) [18]: 40.7 mmHg and 38.7 mmHg and 39.6 mmHg | BP, % changes vs. prevalues [19]: 99.4% and 103.7% and 96.1% | PAP, % changes vs. prevalues [19]: 74.0% and 88.3% and 68.4% | % changes vs. baseline on PAP (time 110 min, baseline 100.0 at 80 min, i.t. dry powder, sesquihydrate): 89.3% and 98.7% and 86.8% | BP (absolute values) [20]: 101 mmHg and 112 mmHg and 116 mmHg | PAP (absolute values) [20]: 36.5 mmHg and 37.6 mmHg and 35.4 mmHg | BP, % changes vs. prevalues [21]: 99.4% | PAP, % changes vs. prevalues [21]: 72.8% and 73.1% and 66.2% | % changes vs. baseline on PAP (time 120 min, baseline 100.0 at 80 min, i.t. dry powder, sesquihydrate): 84.0% and 95.6% and 75.7% | BP (absolute values) [22]: 101 mmHg and 114 mmHg and 115 mmHg | PAP (absolute values) [22]: 34.3 mmHg and 36.4 mmHg and 30.8 mmHg | PAP, % changes vs. prevalues (time 130 min, 375 μg/kg i.t., sesquihydrate): 69.8% | % changes vs. baseline on PAP (time 130 min, baseline 100.0 at 80 min, i.t. dry powder, sesquihydrate): 78.9% and 93.7% and 70.2% | BP (absolute values) [23]: 101 mmHg and 114 mmHg and 115 mmHg | PAP (absolute values) [23]: 32.3 mmHg and 35.7 mmHg and 28.6 mmHg | % changes vs. baseline on PAP (time 140 min, baseline 100.0 at 80 min, i.t. dry powder, sesquihydrate): 75.2% and 91.8% and 67.5% | BP (absolute values) [24]: 99 mmHg and 120 mmHg and 114 mmHg | PAP (absolute values) [24]: 30.8 mmHg and 35.0 mmHg and 27.5 mmHg | % changes vs. baseline on PAP (time 150 min, baseline 100.0 at 80 min, i.t. dry powder, sesquihydrate): 74.0% and 76.0% and 65.4%
